Results taken from US20090247548A1, “PYRROLOPYRIMIDINE DERIVATIVES FOR TREATING PROLIFERATIVE DISEASES” (priority 2004, published 2009).

melting point: 240 to 242 °C
SMILES: C[C@@H](Nc1ncnc2[nH]c(-c3ccc(CN4CCNCC4)cc3)cc12)c1ccccc1 [Example 1, ((R)-1-Phenyl-ethyl)-[6-(4-piperazin-1-ylmethyl-phenyl)-7H-pyrrolo[2,3-d]pyrimidin-4-yl]-amine]
